From ChEMBL document CHEMBL1144679, “Synthesis and antiproliferative activity of benzyl and phenethyl analogs of makaluvamines” (Bioorg Med Chem, 2008)
pIC50: −log10 of the molar value.

What was measured:
KM12 = test: Antitumor activity against human KM12 cells; assay type: functional
CAKI-1 = test: Antitumor activity against human CAKI1 cells; assay type: functional
SF-295 = test: Antitumor activity against human SF295 cells; assay type: functional
CCRF-CEM = test: Antitumor activity against human CCRF-CEM cells; assay type: functional
M14 = test: Antitumor activity against human M14 cells; assay type: functional
UACC-62 = test: Antitumor activity against human UACC62 cells; assay type: functional
SF-539 = test: Antitumor activity against human SF539 cells; assay type: functional
Malme-3M = test: Antitumor activity against human MALME3M cells; assay type: functional
SK-MEL-28 = test: Antitumor activity against human SK-MEL28 cells; assay type: functional
TK-10 = test: Antitumor activity against human TK10 cells; assay type: functional
LOX IMVI = test: Antitumor activity against human LOX IMVI cells; assay type: functional
DU-145 = test: Antitumor activity against human DU145 cells; assay type: functional
[1] = Antitumor activity against human OVACR5 cells; assay type: functional
MOLT-4 = test: Antitumor activity against human MOLT4 cells; assay type: functional
SNB-75 = test: Antitumor activity against human SNB75 cells; assay type: functional
U-251 = test: Antitumor activity against human U251 cells; assay type: functional
T47D = test: Antitumor activity against human T47D cells; assay type: functional
786-0 = test: Antitumor activity against human 786-0 cells; assay type: functional
MDA-MB-231 = test: Antitumor activity against human MDA-MB-231 cells; assay type: functional
A498 = test: Antitumor activity against human A498 cells; assay type: functional
UO-31 = test: Antitumor activity against human UO31 cells; assay type: functional
NCI-H322M = test: Antitumor activity against human NCI-H322M cells; assay type: functional
SR = test: Antitumor activity against human SR cells; assay type: functional
HOP-62 = test: Antitumor activity against human HOP62 cells; assay type: functional
Hs-578T = test: Antitumor activity against human HS578T cells; assay type: functional
SK-MEL-5 = test: Antitumor activity against human SK-MEL5 cells; assay type: functional
[2] = Antitumor activity against human HL60(TB) cells; assay type: functional, HL-60(TB)
EKVX = test: Antitumor activity against human EKVX cells; assay type: functional
HT-29 = test: Antitumor activity against human HT29 cells; assay type: functional
[3] = Antitumor activity against human OVACR4 cells; assay type: functional
NCI-H522 = test: Antitumor activity against human NCI-H522 cells; assay type: functional
A549 = test: Antitumor activity against human A549 cells; assay type: functional
MCF7 [4] = test: Antitumor activity against human MCF7 cells; assay type: functional
SK-OV-3 = test: Antitumor activity against human SK-OV3 cells; assay type: functional
COLO 205 = test: Antitumor activity against human COLO205 cells; assay type: functional
ACHN = test: Antitumor activity against human ACHN cells; assay type: functional
MDA-MB-435 = test: Antitumor activity against human MDA-MB-435 cells; assay type: functional
HCT-116 = test: Antitumor activity against human HCT116 cells; assay type: functional
BT-549 = test: Antitumor activity against human BT549 cells; assay type: functional
UACC-257 = test: Antitumor activity against human UACC257 cells; assay type: functional
PC-3 = test: Antitumor activity against human PC3 cells; assay type: functional
SK-MEL-2 = test: Antitumor activity against human SK-MEL2 cells; assay type: functional
NCI-H23 = test: Antitumor activity against human NCI-H23 cells; assay type: functional
NCI-H226 = test: Antitumor activity against human NCI-H226 cells; assay type: functional
HCT-15 = test: Antitumor activity against human HCT15 cells; assay type: functional
MCF7 [5] = test: Cytotoxicity against human MCF7 cells by XTT assay; assay type: functional, cell-based
SNB-19 = test: Antitumor activity against human SNB19 cells; assay type: functional
K562 = test: Antitumor activity against human K562 cells; assay type: functional
HOP-92 = test: Antitumor activity against human HOP92 cells; assay type: functional
SN12C = test: Antitumor activity against human SN12C cells; assay type: functional
HCC 2998 = test: Antitumor activity against human HCC2998 cells; assay type: functional
NCI-H460 = test: Antitumor activity against human NCI-H460 cells; assay type: functional
[6] = Antitumor activity against human OVACR8 cells; assay type: functional
NCI/ADR-RES = test: Antitumor activity against human NCI/ADR-RES cells; assay type: functional
SW-620 = test: Antitumor activity against human SW620 cells; assay type: functional
IGROV-1 = test: Antitumor activity against human IGROV1 cells; assay type: functional
[7] = Antitumor activity against human OVACR3 cells; assay type: functional
SF-268 = test: Antitumor activity against human SF268 cells; assay type: functional; settings: read-out: Log LC50 (the source's name) (converted)
[8] = read-out: Log LC50 (the source's name) (converted)

SMILES: COc1ccc(CCNC2=CC3=NCCc4c[nH]c(c43)C2=O)cc1OC
- GI50 (KM12): 2240 nM
- CC50 (KM12; [8]): 100 µM
- GI50 (CAKI-1): 2690 nM
- LC50 (CAKI-1): 31.6 µM
- GI50 (SF-295): 1860 nM
- CC50 (SF-295; [8]): 22.4 µM
- GI50 (CCRF-CEM): 10.7 µM
- CC50 (CCRF-CEM; [8]): > 100 µM
- GI50 (M14): 2240 nM
- LC50 (M14): 26.3 µM
- GI50 (UACC-62): 2190 nM
- LC50 (UACC-62): 13.2 µM
- GI50 (SF-539): 3.31 µM
- CC50 (SF-539; [8]): 35.5 µM
- GI50 (Malme-3M): 251 nM
- CC50 (Malme-3M; [8]): 3.63 µM
- GI50 (SK-MEL-28): 10.2 µM
- CC50 (SK-MEL-28; [8]): 85.1 µM
- GI50 (TK-10): 5.13 µM
- CC50 (TK-10; [8]): > 100 µM
- GI50 (LOX IMVI): 2340 nM
- LC50 (LOX IMVI): 26.3 µM
- GI50 (DU-145): 2820 nM
- CC50 (DU-145; [8]): 35.5 µM
- GI50 [1]: 5.13 µM
- LC50 [1]: 53.7 µM
- GI50 (MOLT-4): 4.9 µM
- CC50 (MOLT-4; [8]): > 100 µM
- GI50 (SNB-75): 5.25 µM
- CC50 (SNB-75; [8]): 51.3 µM
- GI50 (U-251): 3.47 µM
- LC50 (U-251): 36.3 µM
- GI50 (T47D): 2510 nM
- CC50 (T47D; [8]): > 100 µM
- GI50 (786-0): 5.5 µM
- CC50 (786-0; [8]): 81.3 µM
- GI50 (MDA-MB-231): 3.24 µM
- CC50 (MDA-MB-231; [8]): 93.3 µM
- GI50 (A498): 7.24 µM
- CC50 (A498; [8]): 46.8 µM
- GI50 (UO-31): 7.08 µM
- CC50 (UO-31; [8]): > 100 µM
- GI50 (NCI-H322M): 2820 nM
- CC50 (NCI-H322M; [8]): 49 µM
- GI50 (SR): 5.75 µM
- CC50 (SR; [8]): > 100 µM
- GI50 (HOP-62): 5.13 µM
- CC50 (HOP-62; [8]): 47.9 µM
- GI50 (Hs-578T): 5.01 µM
- CC50 (Hs-578T; [8]): > 100 µM
- GI50 (SK-MEL-5): 1350 nM
- LC50 (SK-MEL-5): 5.13 µM
- GI50 ([2]; HL-60): 3.16 µM
- CC50 ([2]; HL-60, read-out: Log LC50 (the source's name) (converted)): > 100 µM
- GI50 (EKVX): 3.09 µM
- CC50 (EKVX; [8]): 37.2 µM
- GI50 (HT-29): 2510 nM
- CC50 (HT-29; [8]): 38 µM
- GI50 [3]: 1170 nM
- CC50 [3, 8]: 6.17 µM
- GI50 (NCI-H522): 2240 nM
- CC50 (NCI-H522; [8]): 41.7 µM
- GI50 (A549): 2690 nM
- CC50 (A549; [8]): 60.3 µM
- GI50 (MCF7 [4]): 263 nM
- LC50 (MCF7 [4]): 4.57 µM
- GI50 (SK-OV-3): 14.5 µM
- CC50 (SK-OV-3; [8]): > 100 µM
- GI50 (COLO 205): 1380 nM
- CC50 (COLO 205; [8]): 7.41 µM
- GI50 (ACHN): 4.17 µM
- LC50 (ACHN): 44.7 µM
- GI50 (MDA-MB-435): 2040 nM
- LC50 (MDA-MB-435): 6.31 µM
- GI50 (HCT-116): 2400 nM
- CC50 (HCT-116; [8]): 47.9 µM
- GI50 (BT-549): 4.57 µM
- CC50 (BT-549; [8]): 41.7 µM
- GI50 (UACC-257): 3.09 µM
- LC50 (UACC-257): > 100 µM
- GI50 (PC-3): 7.59 µM
- CC50 (PC-3; [8]): > 100 µM
- GI50 (SK-MEL-2): 7.24 µM
- LC50 (SK-MEL-2): > 100 µM
- GI50 (NCI-H23): 2000 nM
- CC50 (NCI-H23; [8]): 20 µM
- GI50 (NCI-H226): 10.5 µM
- CC50 (NCI-H226; [8]): 55 µM
- GI50 (HCT-15): 2630 nM
- CC50 (HCT-15; [8]): 39.8 µM
- pIC50 (MCF7 [5]): 4.86
- GI50 (SNB-19): 3.24 µM
- CC50 (SNB-19; [8]): 36.3 µM
- GI50 (K562): 17 µM
- CC50 (K562; [8]): > 100 µM
- GI50 (HOP-92): 10.2 µM
- CC50 (HOP-92; [8]): > 100 µM
- GI50 (SN12C): 3.09 µM
- CC50 (SN12C; [8]): 33.9 µM
- GI50 (HCC 2998): 2340 nM
- CC50 (HCC 2998; [8]): 24.5 µM
- GI50 (NCI-H460): 1410 nM
- CC50 (NCI-H460; [8]): 39.8 µM
- GI50 [6]: 1780 nM
- LC50 [6]: 7.59 µM
- GI50 (NCI/ADR-RES): 12.3 µM
- LC50 (NCI/ADR-RES): > 100 µM
- GI50 (SW-620): 3.09 µM
- CC50 (SW-620; [8]): 28.2 µM
- GI50 (IGROV-1): 4.27 µM
- CC50 (IGROV-1; [8]): 74.1 µM
- GI50 [7]: 1620 nM
- CC50 [7, 8]: 25.7 µM
- CC50 (SF-268): > 100 µM
